ChEMBL document CHEMBL1201862, “PubChem BioAssay data set” (2004)
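Grown in 96-well plates, cells were treated for 48 hours with each compound at five concentrations. Insufficient inhibition: endpoint recorded as highest concentration tested. At the GI50, growth is halved.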 The source made the active and inactive calls. Rule as the data show it: active = GI50 up to about 1.1 µM and inactive = higher.

How the values were obtained:
Test in all cases: growth of human tumour cells (NCI), 48 h
DLD-1 = test system: DLD-1
LXFL 529 = test system: LXFL 529
HOP-18 = test system: HOP-18
M19-MEL = test system: M19-MEL
SNB-78 = test system: SNB-78
DMS-273 = test system: DMS-273
DMS-114 = test system: DMS-114
XF498 = test system: XF498

Measured: GI50

CCCCCNC(=O)C1C(=O)N(CCCCC)C(=O)/C1=N\N (centres undefined)
inactive: DLD-1 70.6 µM | LXFL 529 41.2 µM | HOP-18 50 µM | M19-MEL 86.5 µM | SNB-78 23.6 µM

CC(=O)OCC(OC(C)=O)C(OC(C)=O)C(OC(C)=O)C(=O)CNn1c(-c2ccc(C)cc2)nc2ccccc2c1=O (centres undefined)
inactive: DMS-273 > 100 µM | DMS-114 54.1 µM | XF498 16.5 µM | LXFL 529 > 100 µM | M19-MEL > 100 µM | SNB-78 > 100 µM

Cc1ccc(C(=O)C#Cc2cnc(O)nc2O)cc1
inactive: DMS-273 16.1 µM | DLD-1 10.3 µM | HOP-18 18.6 µM | M19-MEL 14.7 µM | SNB-78 11.9 µM

N#Cc1ccccc1NC(=O)c1ccccc1
inactive: DMS-273 > 100 µM | DLD-1 > 100 µM | XF498 > 100 µM | HOP-18 > 100 µM | M19-MEL > 100 µM | SNB-78 > 100 µM

CCCNC(=O)C(C)(Cl)C(=O)c1ccccc1O (centres undefined)
inactive: DMS-273 > 100 µM | DMS-114 > 100 µM | DLD-1 > 100 µM | LXFL 529 > 100 µM | HOP-18 > 100 µM | M19-MEL > 100 µM | SNB-78 > 100 µM

CC1COS(=O)N1c1ccccc1 (centres undefined)
inactive: DMS-273 > 100 µM | DMS-114 > 100 µM | DLD-1 > 100 µM | XF498 > 100 µM | LXFL 529 > 100 µM | HOP-18 > 100 µM | M19-MEL > 100 µM

O=C1NC(=O)C(C(=O)C(=O)Nc2cccc(C(F)(F)F)c2)C(=O)N1
inactive: DMS-114 > 100 µM | DLD-1 > 100 µM | LXFL 529 > 100 µM | M19-MEL > 100 µM | SNB-78 > 100 µM

Nc1nc(=O)c(/N=N/c2ccccc2)c(N)[nH]1
inactive: DMS-273 37.2 µM | DMS-114 25.6 µM | DLD-1 43.1 µM | XF498 60.1 µM | HOP-18 38 µM | M19-MEL 39.3 µM | SNB-78 19.6 µM

O=C(O/N=C1/CCCC/C1=C\c1ccccc1)c1ccccc1
inactive: DMS-273 40.3 µM | DMS-114 17.1 µM | DLD-1 30.5 µM | XF498 > 100 µM | LXFL 529 28.4 µM | HOP-18 > 100 µM | M19-MEL > 100 µM

O=C1CC2CCN(C(=O)c3ccccc3)CC2CCN1.O=C1CCC2CC(C(=O)c3ccccc3)CCC2CN1 (centres undefined)
inactive: DMS-273 > 100 µM | DMS-114 > 100 µM | DLD-1 > 100 µM | LXFL 529 > 100 µM | HOP-18 > 100 µM | M19-MEL > 100 µM | SNB-78 > 100 µM

Nc1nc(SCCC/C=C/B(O)O)nc2c1ncn2C1OC(COP(=O)(O)O)C(O)C1O (centres undefined)
inactive: DMS-273 > 203 µM | DMS-114 > 203 µM | DLD-1 > 203 µM | XF498 > 203 µM | HOP-18 > 203 µM | M19-MEL > 203 µM | SNB-78 > 203 µM
